# Values of other authors in US20260083654A1, “PHOTOPROTECTIVE SYSTEM CONSISTING OF 4 SUNSCREENS” (PIERRE FABRE DERMO-COSMETIQUE, priority 2019, published 2026).
# Values joined by “and” are separate entries in the source; they are usually repeats but may differ in a detail not shown here. Equal entries are not always repeated.
# Details: two peaks, broad spectrum filter
compound,measurement,value
"CCCCC(CC)COc1ccc(-c2nc(-c3ccc(OC)cc3)nc(-c3ccc(OCC(CC)CCCC)cc3O)n2)c(O)c1 (stereo not shown) [BEMT, 2,4-bis[4-(2-ethylhexyloxy)-2-hydroxyphenyl]-6-(4-methoxyphenyl)-1,3,5-triazine]",absorption peaks,310 nm and 340 nm
